“And” between values parts separate entries of the source, which are not always exact repeats. Identical values can stand only once.
Legend:
mOATP1B2 = target: T1, mOATP1B2 (Mus musculus, UniProt Q9JJL3); assay: Inhibition of vincristine uptake in HEK293 cells overexpressing mOATP1B2; format: cell-based; settings: HEK293 mOATP1B2; inhibitor 15 min pre-treatment
T1 sequence (Q9JJL3 1-689): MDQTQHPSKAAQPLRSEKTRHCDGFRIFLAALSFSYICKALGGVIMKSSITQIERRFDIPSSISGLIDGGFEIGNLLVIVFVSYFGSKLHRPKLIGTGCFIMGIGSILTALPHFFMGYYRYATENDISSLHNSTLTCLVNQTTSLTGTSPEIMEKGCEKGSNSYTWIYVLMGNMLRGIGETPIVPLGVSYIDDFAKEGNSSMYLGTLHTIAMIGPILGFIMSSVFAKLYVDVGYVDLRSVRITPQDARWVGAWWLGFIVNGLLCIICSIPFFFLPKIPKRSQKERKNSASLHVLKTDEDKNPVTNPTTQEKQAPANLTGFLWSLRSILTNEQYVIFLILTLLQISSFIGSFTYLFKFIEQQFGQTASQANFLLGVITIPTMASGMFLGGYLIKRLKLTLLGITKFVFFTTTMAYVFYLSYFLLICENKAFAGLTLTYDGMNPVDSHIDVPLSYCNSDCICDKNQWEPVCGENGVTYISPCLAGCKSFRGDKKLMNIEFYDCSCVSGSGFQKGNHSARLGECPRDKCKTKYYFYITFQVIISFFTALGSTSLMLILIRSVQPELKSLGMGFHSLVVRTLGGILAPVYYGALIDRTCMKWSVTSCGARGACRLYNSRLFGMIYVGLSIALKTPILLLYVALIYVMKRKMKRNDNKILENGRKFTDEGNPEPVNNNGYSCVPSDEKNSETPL

[1] = Nilotinib levels in liver and DRG of mice; format: in vivo, mouse; settings: OATP1B2(-/-) mice; for concentration at […]: DBA/1LacJ, mouse, liver, oral, Liver nilotinib
Experimental: Pharmacokinetic studies. Pharmacokinetic studies were performed following an established protocol
0.5% hydroxypropyl-methylcellulose in water) was administered at a dose of 10 mg/kg . Serial whole blood
points, from the retro-orbital sinus vein for the subsequent two time-points, and cardiac puncture at the terminal time-point. Blood samples were centrifuged at 11,000 rpm for 5 min, and the plasma supernatants collected and stored at -80°C until analysis by a validated method based on reversed -phase liquid chromatography coupled to tandem mass-spectrometric detection (LC-MS/MS).
mg/kg or 100 mg/kg, and after 1.5 h, plasma, liver, and whole DRG were collected. All plasma and tissue specimens were stored at -80°C until further processing.
injection at a dose of 1 mg/kg. Whole blood samples were collected 0.08, 0.25, 0.5, 1, and 4 h, and livers were collected at the final time point.
Finally, the beads were removed, and the homogenized samples were stored at -80°C until analysis by LC-MS/MS.
Pharmacokinetic parameters were calculated by non -compartmental analysis using Phoenix WinNonlin version 8.0 (Certara). Peak plasma concentration (C max) was determined by visual inspection of the data from the concentration-time curves. The linear trapezoidal rule was used to obtain the area under the plasma concentration-time curve (AUC), and drug levels in tissues were corrected for
Determination of drug levels.
Quantiva triple quadrupole mass spectrometer from Thermo Fisher Scientific was used for LC-MS/MS
An Accucore aQ column (150 × 2.1 mm, dp = 2.6 μm, Thermo Fisher Scientific) was protected
volume was 5.0 μL. The temperature of the autosampler rack was 4°C, and the temperature of the
column was maintained at 50°C. Mobile phase A consisted of water with 0.1% (v/v) formic acid and
mobile phase B consisted of acetonitrile: methanol (1:1) with 0.1% (v/v) formic acid.
assay setting with the positive voltage applied to the ESI capillary was set at 4000 V, and the capillary

hOATP1A2 = hOATP1A2 (Homo sapiens, UniProt P46721); assay: Vincristine uptake screen, HeLa cells overexpressing hOATP1A2; format: in vitro ADME
Experimental: (§1) Relative uptake is expressed as percentage change compared with empty vector controls (n = 4–14 per group). […] Human OATP1B1 and OATP1B3 transporter–overexpressed cells were used as positive controls; empty vector controls were used as the negative control. […] Mechanical allodynia (C), thermal hyperalgesia (D), and sciatic nerve maximal action potential amplitudes (E) are expressed as percentage change relative to baseline values (n = 6–8 per group). Statistical analysis was performed using a 2-way ANOVA with Bonferroni’s post hoc test. **P < 0.01, ***P < 0.001, ****P < 0.0001, compared with baseline values. […] Data are shown as mean ± SEM. […]
(§2) transfected with transporters of interest, including hOAT1, hOAT3, hOAT4, hOATP1A2, hOATP3A1, hOATP4A1, hOATP5A1, hOATP1C1, hOATP1B1, hOATP1B3, hOATP2B1, hOCT1, hOCT2, hOCTN1, hOCTN2, hASBT, hNTCP, hNPT1, hMATE1, hOSTα/β, hPEPT1, hPEPT2, rOatp1a1, rOatp1a4, rOatp1a5, rOatp1b2, rNtcp, rAsbt, rOat1, and rOct1. Cells were transfected with expression plasmid or vector control lacking any insert using Lipofectin reagent (Invitrogen). […] The cellular radioactivity was quantified by liquid scintillation counting as described above. […]
Samples were analyzed using real-time quantitative PCR and Taqman Probes (Applied Biosystems). The relative gene expression was determined using the ΔΔCt method, and normalized to the mouse or human housekeeping gene, GAPDH. […]

hNPT1 = hNPT1 (Homo sapiens, UniProt Q14916); assay: Vincristine uptake screen, HeLa cells overexpressing hNPT1; format: in vitro ADME
Experimental: as §1
as §2, with “(Invitrogen). Sixteen hours thereafter, cells were washed with transport media (OPTIMEM, Invitrogen) and treated with radiolabeled drug.” for “(Invitrogen).”

HL-60 = assay: Cytotoxicity of vincristine with or without nilotinib, MTT assay, HL-60; format: cell-based, human; settings: individual replicates
K562 = assay: Cytotoxicity of vincristine with or without nilotinib, MTT assay, K562; format: cell-based; settings: Homo sapiens, K562, K562 cells, vincristine + 1μM Nilotinib, individual replicates

Sequence of hNPT1 (Q14916 whole entry): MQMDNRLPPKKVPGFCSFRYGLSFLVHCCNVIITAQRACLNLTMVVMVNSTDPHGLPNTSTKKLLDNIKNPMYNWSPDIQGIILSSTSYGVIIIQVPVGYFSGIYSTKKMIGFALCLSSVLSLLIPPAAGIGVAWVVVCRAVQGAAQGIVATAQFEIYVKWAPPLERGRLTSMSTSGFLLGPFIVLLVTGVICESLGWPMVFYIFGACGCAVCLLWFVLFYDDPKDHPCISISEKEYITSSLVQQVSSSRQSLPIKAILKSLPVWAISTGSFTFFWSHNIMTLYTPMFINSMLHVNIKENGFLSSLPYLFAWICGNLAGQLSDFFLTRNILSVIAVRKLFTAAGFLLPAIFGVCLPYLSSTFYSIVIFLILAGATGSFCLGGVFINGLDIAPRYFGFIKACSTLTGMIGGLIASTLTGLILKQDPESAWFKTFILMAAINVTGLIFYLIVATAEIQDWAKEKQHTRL
Sequence of hOATP1A2 (P46721 whole entry): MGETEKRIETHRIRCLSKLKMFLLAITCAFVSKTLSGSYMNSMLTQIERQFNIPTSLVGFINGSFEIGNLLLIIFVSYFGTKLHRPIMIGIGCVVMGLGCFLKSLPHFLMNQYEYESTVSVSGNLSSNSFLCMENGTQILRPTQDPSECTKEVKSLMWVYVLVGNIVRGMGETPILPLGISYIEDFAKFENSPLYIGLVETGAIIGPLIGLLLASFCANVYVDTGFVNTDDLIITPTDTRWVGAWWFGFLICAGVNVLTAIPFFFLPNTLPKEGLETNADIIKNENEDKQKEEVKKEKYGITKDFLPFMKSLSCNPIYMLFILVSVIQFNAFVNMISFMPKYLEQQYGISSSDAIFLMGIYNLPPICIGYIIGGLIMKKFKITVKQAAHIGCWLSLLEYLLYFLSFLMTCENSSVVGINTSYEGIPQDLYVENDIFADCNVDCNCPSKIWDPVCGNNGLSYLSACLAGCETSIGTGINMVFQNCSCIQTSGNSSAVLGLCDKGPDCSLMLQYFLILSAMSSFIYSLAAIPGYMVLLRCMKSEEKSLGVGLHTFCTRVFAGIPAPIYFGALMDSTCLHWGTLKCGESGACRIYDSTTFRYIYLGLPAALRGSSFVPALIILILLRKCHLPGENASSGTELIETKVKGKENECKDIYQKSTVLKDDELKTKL

For `Cc1cn(-c2cc(NC(=O)c3ccc(C)c(Nc4nccc(-c5cccnc5)n4)c3)cc(C(F)(F)F)c2)cn1` [Nilotinib, nilotinib], the “Vincristine uptake (% of vehicle)” value (mOATP1B2) was 73.0702 % of vehicle and 58.7366 % of vehicle and 55.2034 % of vehicle and 63.6149 % of vehicle and 58.7604 % of vehicle and 51.7599 % of vehicle, the concentration at […] ([1]; 25 mg/kg) was 11900 ng/g and the concentration at […] ([1]; 100 mg/kg) was 33700 ng/g. For the same compound, the Liver nilotinib ([1]; 25mg/kg) was 14.24 ng/mg tissue and 15.56 ng/mg tissue and the Liver nilotinib ([1]; 100mg/kg) was 30.37 ng/mg tissue and 41.94 ng/mg tissue.

In the case of `CC[C@]1(O)C[C@H]2CN(CCc3c([nH]c4ccccc34)[C@@](C(=O)OC)(c3cc4c(cc3OC)N(C=O)[C@H]3[C@@](O)(C(=O)OC)[C@H](OC(C)=O)[C@]5(CC)C=CCN6CC[C@]43[C@@H]65)C2)C1` [Vincristine, vincristine], the “Vincristine uptake (% of vector control)” value (hOATP1A2) is reported as 186.00 % of vector control and 176.00 % of vector control and 142.00 % of vector control and 167.00 % of vector control and 183.00 % of vector control and 171.00 % of vector control and 148.00 % of vector control and 164.00 % of vector control, the “Vincristine uptake (% of vector control)” value (hNPT1) is reported as 120.00 % of vector control and 91.00 % of vector control and 99.00 % of vector control and 72.00 % of vector control and 100.00 % of vector control and 104.00 % of vector control and 113.00 % of vector control and the IC50 (HL-60; HL-60 cells, vincristine alone) is reported as 9.13 nM and 3.89 nM and 6.71 nM and 7.31 nM and 6.48 nM and 6.07 nM and 6.3 nM and 8.17 nM and 5.71 nM. For the same compound, the IC50 (HL-60; Homo sapiens, HL-60, HL-60 cells, vincristine + 1μM Nilotinib) was 6.98 nM and the IC50 (K562) was 17.5 nM.
